Assay type in all cases: cell-based
One assay has as its system E. Coli ATCC BAA-200. The assay is described as follows: MIC, broth microdilution (CLSI), E. Coli ATCC BAA-200. Particulars: Escherichia coli, ATCCBAA200; E. Coli ATCC BAA-200, SHV-4, ESBL producing strain; 5×10^5 cfu/mL; cation-adjusted Iso-Sensitest broth containing human Apo-transferrin; read-out: Minimum Inhibitory Concentration (MIC). The procedure: (§1) Compound (I) of the present invention was evaluated for in vitro antimicrobial activity thereof.
(§2) Measurement of Minimum Inhibitory Concentration (MIC: μg/mL) was conducted according to CLSI (Clinical and Laboratory Standards Institute) method, and the amount of bacteria for inoculation was 5×10^5 cfu/mL, and cation-adjusted Iso-Sensitest broth containing human Apo-transferrin was used as a test medium, and the experiment was conducted using broth microdilution method.

Another assay concerns E. cloacae 1481026. The assay is described as follows: MIC, broth microdilution (CLSI), E. cloacae 1481026. Particulars: Enterobacter cloacae, 5×10^5 cfu/mL, cation-adjusted Iso-Sensitest broth containing human Apo-transferrin, read-out: Minimum Inhibitory Concentration (MIC). As to the method: as §1, §2
Background: Broth dilution looks for growth in wells or tubes with falling amounts of substance.

The next assay has as its system A. baumannii 1484820. Kind of assay: MIC, broth microdilution (CLSI), A. baumannii 1484820. The following applies: Acinetobacter baumannii, 5×10^5 cfu/mL, cation-adjusted Iso-Sensitest broth containing human Apo-transferrin, read-out: Minimum Inhibitory Concentration (MIC). As to the method:
as §1, §2

The next assay relates to P. aeruginosa 378057. The assay is described as follows: MIC, broth microdilution (CLSI), P. aeruginosa 378057. The following applies: Pseudomonas aeruginosa, 5×10^5 cfu/mL, cation-adjusted Iso-Sensitest broth containing human Apo-transferrin, read-out: Minimum Inhibitory Concentration (MIC). As to the method:
as §1, §2

A further assay has as its system E. Coli ATCC BAA-196. Kind of assay: MIC, broth microdilution (CLSI), E. Coli ATCC BAA-196. Particulars: Escherichia coli, ATCCBAA196; E. Coli ATCC BAA-196, TEM-10, ESBL producing strain; 5×10^5 cfu/mL; cation-adjusted Iso-Sensitest broth containing human Apo-transferrin; read-out: Minimum Inhibitory Concentration (MIC). The procedure:
as §1, §2

Converted amounts (≈) assume the structure as drawn. Where only a bound is given, the exact number is not on record here.

On to `CC(C)(O/N=C(\C(=O)N[C@@H]1C(=O)N2C(C(=O)[O-])=C(C[N+]34CCC(CNC(=O)C(=O)c5cc(O)c(O)c(F)c5)(CC3)CC4)CS[C@H]12)c1csc(N)n1)C(=O)[O-].[Na+]` [Compound I-20], for which the MIC in the assay with E. Coli ATCC BAA-200 is 0.25 µg/mL; in the assay on E. cloacae 1481026, 2 µg/mL; with A. baumannii 1484820, 4 µg/mL; with P. aeruginosa 378057 it was at most 0.031 µg/mL; in the assay on E. Coli ATCC BAA-196 it was 0.063 µg/mL.
In the same order, the values of `CC(C)(O/N=C(\C(=O)N[C@@H]1C(=O)N2C(C(=O)O)=C(C[N+]3(Cc4noc5cc(O)c(O)cc45)CCCC3)CS[C@H]12)c1csc(N)n1)C(=O)[O-]` [Compound I-9] are 0.25 µg/mL (≈ 0.356 µM), 4 µg/mL (≈ 5.7 µM), 0.5 µg/mL (≈ 0.713 µM), 0.063 µg/mL (≈ 0.0898 µM) and 0.125 µg/mL (≈ 0.178 µM).
On to `CC(C)(O/N=C(\C(=O)N[C@@H]1C(=O)N2C(C(=O)O)=C(C[N+]3(CCN4C(=O)c5c(Cl)cc(O)c(O)c5C4=O)CCCC3)CS[C@H]12)c1csc(N)n1)C(=O)[O-]` [Compound I-3], for which the MIC in the assay on E. Coli ATCC BAA-200 is 0.125 µg/mL (≈ 0.161 µM); in the assay with A. baumannii 1484820, 0.25 µg/mL (≈ 0.321 µM); in the assay on P. aeruginosa 378057 it was 0.063 µg/mL (≈ 0.081 µM); in the assay with E. Coli ATCC BAA-196 it was 0.125 µg/mL (≈ 0.161 µM).
Consider `CC(C)(O/N=C(\C(=O)N[C@@H]1C(=O)N2C(C(=O)O)=C(C[N+]34CCC(CN5C(=O)c6ccc(O)c(O)c6C5=O)(CC3)CC4)CS[C@H]12)c1csc(N)n1)C(=O)[O-]` [Compound I-5], for which the MIC was 0.25 µg/mL (≈ 0.325 µM) with E. Coli ATCC BAA-200; 16 µg/mL (≈ 20.8 µM) in the assay with E. cloacae 1481026; 1 µg/mL (≈ 1.3 µM) in the assay on A. baumannii 1484820; at most 0.031 µg/mL in the assay on P. aeruginosa 378057; 0.25 µg/mL (≈ 0.325 µM) in the assay with E. Coli ATCC BAA-196.
On to `CC(C)(O/N=C(\C(=O)N[C@@H]1C(=O)N2C(c3nnn[n-]3)=C(C[N+]3(CCN4C(=O)c5ccc(O)c(O)c5C4=O)CCCCC3)CS[C@H]12)c1csc(N)n1)C(=O)[O-].[Na+]` [Compound I-15], for which the MIC was found to be 0.125 µg/mL in the assay on E. Coli ATCC BAA-200; 0.5 µg/mL in the assay on E. cloacae 1481026; 0.25 µg/mL with A. baumannii 1484820; 0.063 µg/mL in the assay on P. aeruginosa 378057; 0.125 µg/mL in the assay on E. Coli ATCC BAA-196.
Regarding `CC[N+](CC)(CCN1C(=O)c2ccc(O)c(O)c2C1=O)CC1=C(C(=O)[O-])N2C(=O)[C@@H](NC(=O)/C(=N\OC(C)(C)C(=O)[O-])c3csc(N)n3)[C@H]2SC1.[Na+]` [Compound I-17], the MIC was 0.063 µg/mL in the assay on E. Coli ATCC BAA-200; 0.5 µg/mL in the assay on E. cloacae 1481026; 0.5 µg/mL with A. baumannii 1484820; at most 0.031 µg/mL with P. aeruginosa 378057; 0.063 µg/mL with E. Coli ATCC BAA-196.
With `CC(C)(O/N=C(\C(=O)N[C@@H]1C(=O)N2C(c3nnn[nH]3)=C(C[N+]3(CCN4C(=O)c5ccc(O)c(O)c5C4=O)CCCC3)CS[C@H]12)c1csc(N)n1)C(=O)[O-]` [Compound I-11], the MIC in the assay with E. Coli ATCC BAA-200 is 0.125 µg/mL (≈ 0.163 µM); in the assay on E. cloacae 1481026, 0.5 µg/mL (≈ 0.651 µM); in the assay on A. baumannii 1484820, 0.063 µg/mL (≈ 0.0821 µM); in the assay with P. aeruginosa 378057 it was at most 0.031 µg/mL; in the assay on E. Coli ATCC BAA-196, 0.063 µg/mL (≈ 0.0821 µM).
In the case of `CC(C)(O/N=C(\C(=O)N[C@@H]1C(=O)N2C(c3nnn[nH]3)=C(C[N+]3(CCN4C(=O)c5ccc(O)c(O)c5C4=O)CCCC3)CS[C@H]12)c1nc(N)sc1Cl)C(=O)[O-]` [Compound I-14], the MIC with E. Coli ATCC BAA-200 was 0.063 µg/mL (≈ 0.0785 µM); in the assay on E. cloacae 1481026, 0.5 µg/mL (≈ 0.623 µM); in the assay on A. baumannii 1484820, 0.125 µg/mL (≈ 0.156 µM); in the assay with P. aeruginosa 378057, at most 0.031 µg/mL; with E. Coli ATCC BAA-196, at most 0.031 µg/mL.
As to `CC[N+](CC)(CCN1C(=O)c2ccc(O)c(O)c2C1=O)CC1=C(c2nn[nH]n2)N2C(=O)[C@@H](NC(=O)/C(=N\OC(C)(C)C(=O)O)c3csc(N)n3)[C@H]2SC1.[Na+]` [Compound I-19], the MIC is 0.063 µg/mL with E. Coli ATCC BAA-200; 0.5 µg/mL with E. cloacae 1481026; 0.25 µg/mL with A. baumannii 1484820; at most 0.031 µg/mL with P. aeruginosa 378057; 0.063 µg/mL in the assay with E. Coli ATCC BAA-196.
As to `CC(C)(O/N=C(\C(=O)N[C@@H]1C(=O)N2C(C(=O)O)=C(C[N+]3(CCN4C(=O)c5ccc(O)c(O)c5C4=O)CCCCC3)CS[C@H]12)c1csc(N)n1)C(=O)[O-]` [Compound I-7], the MIC is 0.125 µg/mL (≈ 0.165 µM) in the assay with E. Coli ATCC BAA-200; 0.5 µg/mL (≈ 0.66 µM) in the assay on E. cloacae 1481026; 0.25 µg/mL (≈ 0.33 µM) in the assay on A. baumannii 1484820; at most 0.031 µg/mL with P. aeruginosa 378057; 0.063 µg/mL (≈ 0.0831 µM) in the assay with E. Coli ATCC BAA-196.
Turning to `CC(C)(O/N=C(\C(=O)N[C@@H]1C(=O)N2C(C(=O)[O-])=C(C[N+]34CCC(Cn5ncc6cc(O)c(O)cc6c5=O)(CC3)C4)CS[C@H]12)c1csc(N)n1)C(=O)[O-].[Na+]` [Compound I-22], the MIC in the assay on E. Coli ATCC BAA-200 is 0.125 µg/mL; with E. cloacae 1481026, 1 µg/mL; in the assay with A. baumannii 1484820 it was 1 µg/mL; with P. aeruginosa 378057, at most 0.031 µg/mL; with E. Coli ATCC BAA-196, at most 0.031 µg/mL.
In the case of `CC[N+](CC)(CCN1C(=O)c2ccc(O)c(O)c2C1=O)CC1=C(C(=O)[O-])N2C(=O)[C@@H](NC(=O)/C(=N\O[C@@H](CC(=O)[O-])C(=O)[O-])c3csc(N)n3)[C@H]2SC1.[Na+].[Na+]` [Compound I-18], the MIC in the assay with E. Coli ATCC BAA-200 is 0.063 µg/mL; with E. cloacae 1481026 it was 0.5 µg/mL; in the assay with A. baumannii 1484820, 0.25 µg/mL; in the assay with P. aeruginosa 378057 it was at most 0.031 µg/mL; in the assay with E. Coli ATCC BAA-196, 0.063 µg/mL.
